Entries after “also recorded” stand apart in the source; their conditions may differ. Where a SMILES comes first, the peptide text is derived from it.

Consider 21 molecules from article PMC11267282, “Ultrashort‐Peptide‐Responsive Gene Switches for Regulation of Therapeutic Protein Expression in Mammalian Cells” (Advanced Science, 2024).

The subject of the first data set is ComREXTRA (ComR-EpoR TM-IL-6RB). As to the kind of experiment: SEAP reporter assay, ComREXTRA-based synthetic receptor, transiently transfected HEK-293T. The data set is classed as cell-based, Streptococcus vestibularis. The conditions noted are these: IL-6 50 ng/mL or XIP 50 μmol/L, n = 4. As for the experimental part:
Human embryonic kidney cells (HEK‐293T, ATCC: CRL‐11268), human telomerase‐immortalized mesenchymal stem cells (hMSC‐TERT),^[ [56] ^] human fibrosarcoma cells (HT‐1080, ATCC: CCL‐121), human cervical adenocarcinoma cells (HeLa, ATCC: CCL‐2), Chinese hamster ovary cells (CHO‐K1, ATCC: CCL‐61), baby hamster kidney cells (BHK‐21, ATCC: CCL‐10), and human liver cancer cells (Hep G2, ATCC: CRL‐11997) were cultured in Dulbecco's modified Eagle's medium (DMEM, cat. no. 52100–39, Thermo Fisher Scientific) containing 10% fetal bovine serum (FBS, cat. no. F7524, lot no. 022M3395, Sigma‐Aldrich) and 1% (v/v) streptomycin/penicillin (cat. no. L0022, Biowest). All mammalian cells were grown at 37 °C in a humidified atmosphere containing 5% CO2. For all transient transfections, 15 000 cells were seeded per well of a 96‐well plate (cat. no. 3599, Corning Inc. Life Sciences) overnight. Cells were transfected by mixing 100 ng of DNA and polyethyleneimine (PEI, 24765‐2, Polysciences) in a ratio of 1:4. […] The cell density was calculated using a cell counter (CellDrop BF Brightfield Cell Counter, DeNovix Inc.)
SEAP reporter levels in cell culture supernatants were quantified using a colorimetric assay. […] Absorbance at 405 nm was recorded using a plate reader (Tecan Spark, Tecan Group Ltd., Switzerland) for 30 min at 37 °C to determine the SEAP levels.
In general terms: A reporter such as luciferase makes a cellular process visible.
As to interleukin 6 [IL-6], the “SEAP induction of XIPEXTRA system” value is “ns”.

The data set is the same for the next values; noted with them: IL-6 50 ng/mL or XIP 50 μmol/L, n = 4, listed as IL‐6.
As to interleukin 6 [IL-6], the “SEAP induction of XIPEXTRA system” value was “no apparent induction; also recorded: no detectable activation”.

The subject of another data set is engineered mammalian cells. As to the kind of experiment: Resazurin-based cell viability assay. The conditions noted are these: 50 and 250 µmol/L, 24 h, n = 4. As to the method:
Cells were incubated with resazurin (cat. no. R7017, Sigma‐Aldrich, USA) at a concentration of 50 µg ml^−1 for 2 h. Then fluorescence was assayed with a plate reader (Tecan Spark, Tecan Group Ltd., Switzerland) at excitation and emission wavelengths of 540 and 590 nm, respectively. The fluorescence intensity of non‐induced cells was set to 100%.
Consider APYFMIYY [RE11], for which the HEK-XIP cell viability result is “ns”.
Turning to `CSCC[C@H](NC(=O)[C@H](Cc1ccccc1)NC(=O)[C@H](Cc1ccc(O)cc1)NC(=O)[C@@H]1CCCN1C(=O)[C@H](C)N)C(=O)NCC(=O)N[C@@H](Cc1ccc(O)cc1)C(=O)N[C@@H](Cc1ccc(O)cc1)C(=O)O` [RE12] (H-APYFMGYY-OH), the HEK-XIP cell viability entry is on record as “ns”.
For `CC[C@H](C)[C@H](NC(=O)[C@H](CCSC)NC(=O)[C@H](Cc1ccccc1)NC(=O)[C@H](Cc1ccc(O)cc1)NC(=O)[C@@H]1CCCN1C(=O)[C@@H](N)C(C)C)C(=O)N[C@@H](Cc1ccc(O)cc1)C(=O)N[C@@H](Cc1ccc(O)cc1)C(=O)O` [RE10] (H-VPYFMIYY-OH), the HEK-XIP cell viability result is “ns”.

The subject of a further data set is ComREXTRA in HEK-XIP cells. As to the kind of experiment: SEAP expression by monoclonal cell line HEK-XIP / monoclonal clones. The format is cell-based, Streptococcus vestibularis. The conditions noted are these: peptides from human sequence BLAST (Supplementary Figure 14c,d), 24 h, n = 4. As to the method: HEK‐293T or hMSC‐TERT cells were seeded in a 24‐well plate at a density of 5× 10^4 cells per well for 24 h. Then the cells were co‐transfected with 1000 ng of plasmid mixture containing pJH1611 (ITR‐OSTAT3‐SEAP‐P2A‐mINS‐pA:PRPBSA‐ECFP‐P2A‐PuroR‐pA‐ITR), pJH1618 (ITR‐PhCMV‐STAT3‐pA:PRPBSA‐ECFP‐P2A‐PuroR‐pA‐ITR), pJH1632 (ITR‐PSV40‐SP‐ComRK155R/F158Y/R186S/S222N/C17S‐EpoR‐IL‐6RB‐pA: PhCMV‐ZeoR‐P2A‐mRuby‐pA‐ITR) and the Sleeping Beauty transposase pJH42 (PhCMV‐SB100X‐pA)^[ [6], [44] ^] at the molar ratio of 2:10:50:6. After 24 h of transfection, the cells were transferred into the medium containing 0.5 µg ml^−1 puromycin, 5 µg ml^−1 blasticidin, and 100 µg ml^−1 of zeocin for antibiotic selection for three days. Then the polyclonal population of engineered cells was suspended in DMEM medium and separated by fluorescence‐activated cell sorting (FACS, BD FACS ARIA FUSION, BD Biosciences) using yPET (517/530), mRuby (558/605), and iRFP (690/713) fluorescence. The triple‐positive population was isolated into single cells and further cultured in 96‐well plates in medium containing the three selection antibiotics. After two weeks of clonal expansion, monoclonal cell lines were screened by the addition of XIP and the best‐in‐class cell line was selected for follow‐up experiments. Fluorescence‐based flow cytometry was performed to confirm triple‐positive fluorescence for the best‐in‐class cell line.
SEAP reporter levels in cell culture supernatants were quantified using a colorimetric assay. In brief, 20 µl of cell culture supernatant was mixed with 80 µl of PBS buffer (cat. no. 14190144, ThermoFisher) and heat‐inactivated at 65 °C for 30 min. Then 80 µl of 2x SEAP assay buffer (20 mM homoarginine, 1 mM MgCl2, 21% diethanolamine, pH 9.8) was mixed with 20 µl of substrate solution, and 100 µl of the buffer‐substrate mixture was added to 100 µl of the diluted heat‐inactivated sample. Absorbance at 405 nm was recorded using a plate reader (Tecan Spark, Tecan Group Ltd., Switzerland) for 30 min at 37 °C to determine the SEAP levels.
As to “VPFYYYY [Align5-7_VPFYYYY, short peptide based on conserved human motif]”, the “SEAP level vs non-induced (significance)” value was “ns”.
“RAPKFMIY [Align14_RAPKFMIY, short peptide based on conserved human motif]”: the “SEAP level vs non-induced (significance)” value is “ns”.
As to “VPYFYY [Align16_VPYFYY, short peptide based on conserved human motif]”, the “SEAP level vs non-induced (significance)” value is recorded as “ns”.
The same measure, in the same setting: next, “LPFFMIL [Align10-13_LPFFMIL, short peptide based on conserved human motif]”: “ns”.
Take “RPFHFMIY [Align15-20_RPFHFMIY, short peptide based on conserved human motif]”: the “SEAP level vs non-induced (significance)” value is on record as “ns”.
With “RPFFYY [Align10-12_RPFFYY, short peptide based on conserved human motif]”, the “SEAP level vs non-induced (significance)” value was “ns”.
“APFFYY [Align19_APFFYY, short peptide based on conserved human motif]”: the “SEAP level vs non-induced (significance)” value was “ns”.
For the molecule “VPYFYYY [Align15_VPYFYYY, short peptide based on conserved human motif]”, the “SEAP level vs non-induced (significance)” value is listed as “ns”.
Turning to “DPFFYY [Align18_DPFFYY, short peptide based on conserved human motif]”, the “SEAP level vs non-induced (significance)” value is “ns”.
Take “VPFFYYYY [Align1-2_VPFFYYYY, short peptide based on conserved human motif]”: the “SEAP level vs non-induced (significance)” value is “ns”.
In the case of “VPFFMIIC [Align1-9_VPFFMIIC, short peptide based on conserved human motif]”, the “SEAP level vs non-induced (significance)” value is on record as “ns”.
On to “PPFFYY [Align14/20_PPFFYY, short peptide based on conserved human motif]”, for which the “SEAP level vs non-induced (significance)” value was “ns”.
Regarding “VPFYYY [Align8-9/17_VPFYYY, short peptide based on conserved human motif]”, the “SEAP level vs non-induced (significance)” value is “ns”.
Take “RPFFYYYY [Align3-4_RPFFYYYY, short peptide based on conserved human motif]”: the “SEAP level vs non-induced (significance)” value is “ns”.

Staying with this data set, now noted: specificity / orthogonality screening, 24 h, vs non-induced control.
In the case of C peptide [reference compound], the “SEAP induction in HEK-XIP cells (result in words)” value (shortened to “SEAP induction in HEK-XIP cells”) is recorded as “none of them displayed inducing activity”.
As for VPFFMYY [ID1], the “SEAP induction in HEK-XIP cells” value was “significant fold inductions”.
BAM8‐22 [reference compound]: the “SEAP induction in HEK-XIP cells” value is “none of them displayed inducing activity”.
